# pIC50: −log10 of the molar value.
# What was measured:
# Pharmacokinetics in rats = format: in vivo, SD rats
# [1] = tested on: HEK293T-KIF5B-RET V804M cells; assay: Proliferation assay (CellTiter-Glo); format: cell-based; conditions: Homo sapiens, read-out: Cellular Viability IC50
# Protocol: (§1) The cell lines HEK293T, Baf3, TT cell and NIH-3T3 were obtained from the Cell Resource Center, Peking Union Medical College (PCRC). HEK293T and NIH-3T3 were maintained in DMEM high glucose medium (#C3113-0500, Vivacell) supplemented with 10 % FBS (#10500064, Gibco) and 1 % Penicillin-Streptomycin (#15140122, Gibco). The murine Pro‐B cell line Baf3 was cultured in RPMI 1640 medium (#C3010, Vivacell) supplemented with 10 % FBS, 1 % Penicillin-Streptomycin and 1 ng/mL recombinant murine interleukin-3 (#213-13, PeproTech). All stably transformed BaF3 cells were cultured in RPMI 1640 without IL‐3. The TT MTC cell was grown in Ham's F-12K medium (#21127022, Gibco) supplemented with 10 % FBS and 1 % Penicillin-Streptomycin. Cells were cultured at 37 °C under 5 % CO2 and high humidity conditions.
# (§2) KIF5B-RET, CCDC6-RET and mutations were cloned into pCDHL vector and were verified by sequencing. Reah RET expression vectors were separately co‐transfected with psPAX2 and pMD2.G packaging plasmids into 60-70% confluent HEK 293T cells maintained in 2 mL of culture medium in six‐well plates using Polyethyleneimine (PEI) transfection grade. Virus containing media was harvested after 48 h and filtered with 0.45 μm membrane and stored at -80 °C prior to infection. For infection of Ba/F3 cells, 1 mL of viral supernatant and 8 μg/mL polybrene were added to 5 million cells per well in six‐well plates. Infected cells were selected with the addition of 1 μg/mL puromycin for 2 weeks in RPMI-1640/ 10% FBS/ 1 ng/mL IL-3 medium. Subsquently, puromycin-resistant cells were cultured in IL-3-free medium for 1 week and RET fusion proteins were confirmed by immunoblot analysis.
# (§3) Cell viability was assessed by luminescence using CellTiter-Glo 2.0 assay (Promega). IC50 curve fitting was performed using GraphPad Prism 9.0.
# [2] = tested on: HEK293T-KIF5B-RET WT cells; assay: Proliferation assay (CellTiter-Glo); format: cell-based; conditions: Homo sapiens, read-out: Cellular Viability IC50
# Protocol: as §1, §2, §3
# [3] = tested on: HEK293T-KIF5B-RET M918T cells; assay: Proliferation assay (CellTiter-Glo); format: cell-based; conditions: Homo sapiens, read-out: Cellular Viability IC50
# Protocol: as §1, §2, §3
# [4] = Plasma protein binding, rapid equilibrium dialysis; format: in vitro ADME; conditions: monkey, read-out: Plasma protein binding rate (converted)
# [5] = both sexes, SD, rat, plasma, iv, 1 mg/kg i.v.
# [6] = both sexes, SD, rat, plasma, po, gavage 5 mg/kg
# [7] = both sexes, SD, rat, plasma, po, gavage 20 mg/kg
# [8] = both sexes, SD, rat, plasma, po, gavage 50 mg/kg
smiles,measurement,setting,value
"COc1ccc(CN2C3CC2CN(c2ccc(-c4cc(N5CC(C)(O)C5)cn5ncc(C#N)c45)cn2)C3)cn1 [SY-5007, 6-(3-hydroxy-3-methylazetidin-1-yl)-4-(6-(6-((6-methoxypyridin-3-yl)methyl)-3,6-diazabicyclo[3.1.1]heptan-3-yl)pyridin-3-yl)pyrazolo[1,5-a]pyridine-3-carbonitrile]",clearance,Pharmacokinetics in rats; [5],3.42 mL/min/kg
same,half-life,Pharmacokinetics in rats; [5],3.34 h
same,Vd,"Pharmacokinetics in rats; both sexes, SD, rat, plasma, iv, 1 mg/kg i.v., read-out: Vss",0.697 L/kg
same,AUC(0-inf),Pharmacokinetics in rats; [6],11900 ng·h/mL
same,Cmax,Pharmacokinetics in rats; [6],2190 ng/mL
same,AUC(0-inf),Pharmacokinetics in rats; [7],48100 ng·h/mL
same,Cmax,Pharmacokinetics in rats; [7],7150 ng/mL
same,AUC(0-inf),Pharmacokinetics in rats; [8],112000 ng·h/mL
same,Cmax,Pharmacokinetics in rats; [8],12600 ng/mL
same,half-life,"Pharmacokinetics in rats; both sexes, SD, rat, plasma, po, gavage 5-50 mg/kg",3.61 to 4.49 h
same,MRT inf,"Pharmacokinetics in rats; both sexes, SD, rat, plasma, po, gavage 5-50 mg/kg, read-out: MRTINF_obs",4.92 to 6.96 h
same,bioavailability,"Pharmacokinetics in rats; both sexes, SD, rat, plasma, po, gavage 5-50 mg/kg, read-out: Oral bioavailability (F)",39.1 to 42.1%
same,Tmax,"Pharmacokinetics in rats; both sexes, SD, rat, plasma, po, single gavage 5, 20, 50 mg/kg",0.25 to 2 h
same,AUC0-24h increase day 7 vs day 1,"Pharmacokinetics in rats; males, 20 mg/kg once daily 7 days",47.3%
same,pIC50,[1],7.00
same,pIC50,[2],7.26
same,pIC50,[3],7.24
same,fraction unbound,[4],0.023

# Reference: PMC11532403 (Signal Transduction and Targeted Therapy, 2024)
